Source: BigSolDB 2.1

Cc1cnc(NC(=O)C2=C(O)c3ccccc3S(=O)(=O)N2C)s1
solubility (mole fraction)
Conditions | 293.15 K | 298.15 K | 303.15 K | 308.15 K | 313.15 K
in DMF | 0.0117 | 0.0128 | 0.0139 | 0.0153 | 0.0163
in formamide | 0.00069 | 0.000749 | 0.000802 | 0.000872 | 0.000927
in n-methylformamide | 0.00149 | 0.00159 | 0.00169 | 0.00182 | 0.00191
